Results reported in US20230141101A1, “PDE4 INHIBITOR COMPOUND AND MEDICAL USE THEREOF” (Suzhou Longbotai Pharmaceuticals Co., Ltd., priority 2020, published 2023).

How the values were obtained:
Assay type in all cases: biochemical
Conditions in all cases: 20 nM
PDE4A1A = biological target: T1, PDE4A1A (Homo sapiens, UniProt P27815); assay: PDE4 inhibitory activity assay (FAM-cAMP enzymatic reaction), PDE4A1A
T1 construct: purchased BPS 60040
Method in brief: (§1)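 Human PDE4A1A, PDE4B1 or PDE4D2 preincubated with compound 15 min at room temperature, then FAM-cAMP substrate added; reaction 30 min at room temperature before stop solution and further 60 min. Fluorescence read on multilabel counter; IC50 fitted from inhibition rates.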

PDE4B1 = biological target: T2, PDE4B1 (Homo sapiens, UniProt Q07343); assay: PDE4 inhibitory activity assay (FAM-cAMP enzymatic reaction), PDE4B1
T2 construct: purchased BPS 60041
Method in brief: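 Each isoform is incubated with test compound for 15 min at room temperature before FAM-cAMP substrate starts a 30-min reaction.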

PDE4D2 = PDE4D2 (Homo sapiens, UniProt Q08499); assay: PDE4 inhibitory activity assay (FAM-cAMP enzymatic reaction), PDE4D2
Method in brief: as §1

T2 sequence (Q07343 whole entry): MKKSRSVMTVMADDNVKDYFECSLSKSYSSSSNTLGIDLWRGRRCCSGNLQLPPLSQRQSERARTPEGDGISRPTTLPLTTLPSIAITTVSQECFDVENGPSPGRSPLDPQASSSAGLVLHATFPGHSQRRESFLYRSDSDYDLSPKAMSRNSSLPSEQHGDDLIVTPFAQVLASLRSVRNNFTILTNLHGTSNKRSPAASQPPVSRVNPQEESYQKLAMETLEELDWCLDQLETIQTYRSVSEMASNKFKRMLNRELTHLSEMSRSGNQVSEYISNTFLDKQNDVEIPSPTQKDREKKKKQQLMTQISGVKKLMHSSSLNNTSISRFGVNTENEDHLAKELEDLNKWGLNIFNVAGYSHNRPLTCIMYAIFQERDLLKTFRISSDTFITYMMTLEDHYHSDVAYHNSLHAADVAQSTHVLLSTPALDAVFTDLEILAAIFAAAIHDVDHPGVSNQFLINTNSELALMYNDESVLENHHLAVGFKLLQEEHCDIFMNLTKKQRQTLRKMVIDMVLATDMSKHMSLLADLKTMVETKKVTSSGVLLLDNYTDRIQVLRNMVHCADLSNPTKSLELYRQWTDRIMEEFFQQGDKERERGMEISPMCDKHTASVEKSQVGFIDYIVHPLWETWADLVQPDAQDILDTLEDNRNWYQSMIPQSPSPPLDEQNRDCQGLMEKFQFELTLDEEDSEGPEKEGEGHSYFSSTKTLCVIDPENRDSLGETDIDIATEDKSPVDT
Sequence of PDE4D2 (Q08499 303-809): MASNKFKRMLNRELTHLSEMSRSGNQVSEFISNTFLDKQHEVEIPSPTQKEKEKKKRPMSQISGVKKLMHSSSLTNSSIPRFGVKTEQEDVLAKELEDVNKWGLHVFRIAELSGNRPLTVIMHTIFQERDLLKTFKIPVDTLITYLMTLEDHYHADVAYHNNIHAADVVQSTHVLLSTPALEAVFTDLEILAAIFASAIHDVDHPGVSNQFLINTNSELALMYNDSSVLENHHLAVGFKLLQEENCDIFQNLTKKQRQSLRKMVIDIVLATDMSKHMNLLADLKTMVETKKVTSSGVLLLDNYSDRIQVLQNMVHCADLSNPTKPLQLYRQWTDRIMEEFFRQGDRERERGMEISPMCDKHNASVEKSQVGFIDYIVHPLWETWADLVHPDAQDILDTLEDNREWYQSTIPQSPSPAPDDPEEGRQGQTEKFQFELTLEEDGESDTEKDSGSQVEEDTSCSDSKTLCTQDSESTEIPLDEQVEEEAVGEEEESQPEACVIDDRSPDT
T1 sequence (P27815 1-647 isoform P27815-4): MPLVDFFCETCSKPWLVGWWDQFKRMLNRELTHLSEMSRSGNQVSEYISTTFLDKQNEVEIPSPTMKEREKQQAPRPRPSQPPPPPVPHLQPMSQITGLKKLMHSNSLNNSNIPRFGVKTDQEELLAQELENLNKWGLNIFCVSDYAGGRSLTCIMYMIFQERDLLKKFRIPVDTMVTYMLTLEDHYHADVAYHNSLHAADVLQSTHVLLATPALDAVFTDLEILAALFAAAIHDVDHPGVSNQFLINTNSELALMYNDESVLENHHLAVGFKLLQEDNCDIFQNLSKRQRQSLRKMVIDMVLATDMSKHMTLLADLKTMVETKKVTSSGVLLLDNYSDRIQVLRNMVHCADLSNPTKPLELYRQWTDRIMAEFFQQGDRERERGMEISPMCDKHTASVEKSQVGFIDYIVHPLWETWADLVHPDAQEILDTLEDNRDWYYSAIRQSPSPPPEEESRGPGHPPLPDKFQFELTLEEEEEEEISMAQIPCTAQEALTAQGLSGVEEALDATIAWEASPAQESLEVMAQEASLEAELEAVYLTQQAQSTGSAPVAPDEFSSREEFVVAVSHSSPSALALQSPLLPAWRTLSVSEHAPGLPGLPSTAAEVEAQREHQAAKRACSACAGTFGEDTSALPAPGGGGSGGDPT

PDE4 A1 inhibitory effect at 20 nM (PDE4A1A)	PDE4 B1 inhibitory effect at 20 nM (PDE4B1)	PDE4 D2 inhibitory effect at 20 nM (PDE4D2)	SMILES
+	+	+	CCOc1nc([C@@H](CS(C)(=O)=O)n2c(=O)n(C)c3cc(-c4cc(F)ccc4OC)cnc32)ccc1OC [Ex. 118, (S)-6-(5-fluoro-2-methoxyphenyl)-3-(1-(6-ethoxy-5-methoxypyridin-2-yl)-2-(methylsulfonyl)ethyl)-1-methyl-1H-imidazo[4,5-b]pyridin-2(3H)-one]
+	+	+	CCOc1nc([C@@H](CS(C)(=O)=O)n2c(=O)[nH]c3cc(-c4c(F)cccc4F)cnc32)ccc1OC [Ex. 88, (S)-6-(2,6-difluorophenyl)-3-(1-(6-ethoxy-5-methoxypyridin-2-yl)-2-(methylsulfonyl)ethyl)-1H-imidazo[4,5-b]pyridin-2(3H)-one]
+	+	+	CCOc1ccccc1-c1ccc2c(c1)[nH]c(=O)n2[C@H](CS(C)(=O)=O)c1ccc(OC)c(OCC)n1 [Ex. 192, (S)-1-(1-(6-ethoxy-5-methoxypyridin-2-yl)-2-(methylsulfonyl)ethyl)-5-(2-ethoxyphenyl)-1H-benzo[d]imidazol-2(3H)-one]
